In PubChem BioAssay AID248 (DTP/NCI, 2004):
Where “and” joins values, the source holds several entries; their conditions need not be identical. Equal entries are not always repeated. Inconclusive results and toxic doses are left out. Rule as the data show it: active = T/C of 150% or more; inactive = T/C below 125%.

System: L1210 leukemia ip in BDF1 mice, survival T/C
Test: NCI In Vivo Anticancer Drug Screen. Data for tumor model L1210 Leukemia (intraperitoneal) in B6D2F1 (BDF1) mice
Conditions: endpoint: mean survival time, higher = longer survival
Outline: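 In this screen, tumor-bearing mice given compound are compared to those given vehicle, and their survival values are reported as a treated-to-control quotient.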

[1] = dose: 12.5 mg/kg/injection, schedule: Q01DX009 (ip), vehicle: Klucel (hydroxypropylcellulose) (HPC)
[2] = dose: 25.0 mg/kg/injection, schedule: Q01DX009 (ip), vehicle: Klucel (hydroxypropylcellulose) (HPC)
[3] = dose: 100.0 mg/kg/injection, schedule: Q04DX003 (ip), vehicle: Klucel (hydroxypropylcellulose) (HPC)
[4] = dose: 200.0 mg/kg/injection, schedule: Q04DX003 (ip), vehicle: Klucel (hydroxypropylcellulose) (HPC)
[5] = dose: 400.0 mg/kg/injection, schedule: Q04DX003 (ip), vehicle: Klucel (hydroxypropylcellulose) (HPC)
[6] = dose: 50.0 mg/kg/injection, schedule: Q04DX003 (ip), vehicle: saline with Tween-80
[7] = dose: 100.0 mg/kg/injection, schedule: Q01DX001 (ip), vehicle: saline
[8] = dose: 200.0 mg/kg/injection, schedule: Q01DX001 (ip), vehicle: saline
[9] = dose: 400.0 mg/kg/injection, schedule: Q01DX001 (ip), vehicle: saline
[10] = dose: 100.0 mg/kg/injection, schedule: Q04DX002 (ip), vehicle: saline
[11] = dose: 200.0 mg/kg/injection, schedule: Q04DX002 (ip), vehicle: saline
[12] = dose: 400.0 mg/kg/injection, schedule: Q04DX002 (ip), vehicle: saline
[13] = dose: 100.0 mg/kg/injection, schedule: Q01DX001 (ip), vehicle: carboxymethylcellulose (CMC)
[14] = dose: 200.0 mg/kg/injection, schedule: Q01DX001 (ip), vehicle: carboxymethylcellulose (CMC)

Measured: T/C

C[C@H]1C[C@@H]2[C@H]([C@@H](O)C[C@@]3(C)[C@H]2CC[C@]3(O)C(=O)CO)[C@@]2(C)C=CC(=O)C=C12
inactive: dose: 6.25 mg/kg/injection, schedule: Q01DX009 (ip), vehicle: Klucel (hydroxypropylcellulose) (HPC) 104 % of control | [1] 104 % of control | dose: 12.5 mg/kg/injection, schedule: Q01DX Z (sc), vehicle: water 107 % of control | [2] 102 % of control | dose: 25.0 mg/kg/injection, schedule: Q01DX Z (sc), vehicle: water 108 % of control | dose: 50.0 mg/kg/injection, schedule: Q01DX009 (ip), vehicle: Klucel (hydroxypropylcellulose) (HPC) 98 % of control | dose: 50.0 mg/kg/injection, schedule: Q01DX Z (sc), vehicle: water 107 % of control | dose: 100.0 mg/kg/injection, schedule: Q01DX009 (ip), vehicle: Klucel (hydroxypropylcellulose) (HPC) 107 % of control | dose: 100.0 mg/kg/injection, schedule: Q01DX Z (sc), vehicle: water 110 % of control | dose: 200.0 mg/kg/injection, schedule: Q01DX009 (ip), vehicle: Klucel (hydroxypropylcellulose) (HPC) 104 % of control | dose: 200.0 mg/kg/injection, schedule: Q01DX Z (sc), vehicle: water 115 % of control

COc1nc(N/N=C/c2ccccc2O)ccc1[N+](=O)[O-]
inactive: [3] 93 % of control | [4] 93 % of control | [5] 95 % of control

CC(C)(O)CNC1CCCCC1
inactive: dose: 75.0 mg/kg/injection, schedule: Q01DX001 (ip), vehicle: saline 108 % of control

CO/C=C(\C)C(=O)NC(=O)NC1CCC(CO)C1 (stereo not drawn)
inactive: dose: 100.0 mg/kg/injection, schedule: Q01DX001 (ip), vehicle: other 96 % of control | dose: 200.0 mg/kg/injection, schedule: Q01DX001 (ip), vehicle: other 107 % of control | dose: 400.0 mg/kg/injection, schedule: Q01DX001 (ip), vehicle: other 98 % of control

CCCCC/C(C)=C1\Oc2c(C)c(C)cc(C)c2C1=O
inactive: dose: 100.0 mg/kg/injection, schedule: Q04DX002 (ip), vehicle: saline with Tween-80 100 % of control | dose: 200.0 mg/kg/injection, schedule: Q04DX002 (ip), vehicle: saline with Tween-80 107 % of control | dose: 400.0 mg/kg/injection, schedule: Q04DX002 (ip), vehicle: saline with Tween-80 114 % of control

CCOC(=O)/C(C#N)=C/c1cc2c3c(c1)CCCN3CCC2
inactive: [6] 111 % of control | dose: 100.0 mg/kg/injection, schedule: Q04DX003 (ip), vehicle: saline with Tween-80 93 % of control | dose: 200.0 mg/kg/injection, schedule: Q04DX003 (ip), vehicle: saline with Tween-80 93 % of control | dose: 400.0 mg/kg/injection, schedule: Q04DX003 (ip), vehicle: saline with Tween-80 92 % of control

COC(C#N)C(O)(c1ccccc1)c1ccccc1 (stereo not drawn)
inactive: dose: 75.0 mg/kg/injection, schedule: Q01DX001 (ip), vehicle: other 94 % of control | dose: 150.0 mg/kg/injection, schedule: Q01DX001 (ip), vehicle: other 100 % of control

BrC1C2CCC(C2)C1Br (stereo not drawn)
inactive: [7] 102 % of control | [8] 100 % of control | [9] 100 % of control

CCCCOCCOCCOc1ccc(C(=O)O)cc1
inactive: dose: 50.0 mg/kg/injection, schedule: Q01DX009 (ip), vehicle: acetone 102 % of control | dose: 100.0 mg/kg/injection, schedule: Q01DX009 (ip), vehicle: acetone 97 % of control | dose: 100.0 mg/kg/injection, schedule: Q04DX003 (ip), vehicle: saline 94 % of control | dose: 200.0 mg/kg/injection, schedule: Q01DX009 (ip), vehicle: acetone 102 % of control | dose: 200.0 mg/kg/injection, schedule: Q04DX003 (ip), vehicle: saline 94 % of control

CC(O)C(=O)COP(=O)(O)O (stereo not drawn)
inactive: [7] 96 % of control | [8] 102 % of control | [9] 96 % of control

CCCCN=C=NCCC[N+](C)(C)C
inactive: [3] 98 % of control | [4] 107 % of control

c1ccc([P+](c2ccccc2)(c2ccccc2)C2OCCO2)cc1
inactive: dose: 25.0 mg/kg/injection, schedule: Q04DX003 (ip), vehicle: saline with Tween-80 95 % of control | [6] 103 % of control

CCN(CC)CCCN=C(N)CCl
inactive: [1] 96 % of control | [2] 96 % of control | dose: 25.0 mg/kg/injection, schedule: Q04DX002 (ip), vehicle: Klucel (hydroxypropylcellulose) (HPC) 114 % of control | dose: 50.0 mg/kg/injection, schedule: Q04DX002 (ip), vehicle: Klucel (hydroxypropylcellulose) (HPC) 107 % of control | dose: 100.0 mg/kg/injection, schedule: Q04DX002 (ip), vehicle: Klucel (hydroxypropylcellulose) (HPC) 95 % of control

O=[N+]([O-])c1ccc(N/N=C/c2ccccc2)cc1
inactive: dose: 15.0 mg/kg/injection, schedule: Q01DX Z (ip), vehicle: carboxymethylcellulose (CMC) 91 % of control | dose: 30.0 mg/kg/injection, schedule: Q01DX Z (ip), vehicle: carboxymethylcellulose (CMC) 100 % of control | dose: 60.0 mg/kg/injection, schedule: Q01DX Z (ip), vehicle: carboxymethylcellulose (CMC) 94 % of control and 100 % of control | dose: 120.0 mg/kg/injection, schedule: Q01DX Z (ip), vehicle: carboxymethylcellulose (CMC) 94 % of control and 97 % of control | dose: 240.0 mg/kg/injection, schedule: Q01DX Z (ip), vehicle: carboxymethylcellulose (CMC) 97 % of control | dose: 480.0 mg/kg/injection, schedule: Q01DX Z (ip), vehicle: carboxymethylcellulose (CMC) 100 % of control

O=C(CC(NCc1ccccc1)C(=O)O)c1ccccc1 (stereo not drawn)
inactive: [7] 100 % of control | [8] 97 % of control | [9] 97 % of control

CC(=O)OC1CCC2(COS(=O)(=O)c3ccc(C)cc3)C(=CCC3C2CCC2(C)C(C(C)CCCC(C)C)CCC32)C1 (stereo not drawn)
inactive: dose: 100.0 mg/kg/injection, schedule: Q04DX002 (ip), vehicle: steriod suspending solution 101 % of control | dose: 200.0 mg/kg/injection, schedule: Q04DX002 (ip), vehicle: steriod suspending solution 104 % of control | dose: 400.0 mg/kg/injection, schedule: Q04DX002 (ip), vehicle: steriod suspending solution 96 % of control

C/C(CN(C)C)=N\O
inactive: [10] 101 % of control | [11] 99 % of control | [12] 92 % of control

CC[N+](CC)(CCOc1ccc(C(C)(C)CC(C)(C)C)cc1)Cc1ccccc1
inactive: dose: 1.25 mg/kg/injection, schedule: Q01DX009 (ip), vehicle: saline with Tween-80 86 % of control

O=C(O)C[CH2][Ge](=[O])[O][Ge](=[O])[CH2]CC(=O)O
inactive: [10] 100 % of control | [11] 103 % of control | [12] 103 % of control

O=c1[nH]cnc2[nH]ncc12
inactive: dose: 50.0 mg/kg/injection, schedule: Q01DX001 (ip), vehicle: saline with Tween-80 95 % of control | dose: 69.0 mg/kg/injection, schedule: Q01DX015 (ip), vehicle: carboxymethylcellulose (CMC) 94 % of control | [13] 106 % of control | dose: 100.0 mg/kg/injection, schedule: Q01DX001 (ip), vehicle: saline with Tween-80 105 % of control | [7] 101 % of control | dose: 104.0 mg/kg/injection, schedule: Q01DX015 (ip), vehicle: carboxymethylcellulose (CMC) 95 % of control | dose: 156.0 mg/kg/injection, schedule: Q01DX015 (ip), vehicle: carboxymethylcellulose (CMC) 96 % of control | [14] 102 % of control | dose: 234.0 mg/kg/injection, schedule: Q01DX015 (ip), vehicle: carboxymethylcellulose (CMC) 94 % of control | dose: 351.0 mg/kg/injection, schedule: Q01DX015 (ip), vehicle: carboxymethylcellulose (CMC) 95 % of control

Cc1ccc(S(=O)(=O)NS(=O)(=O)c2ccc(C)cc2)cc1
inactive: [7] 101 % of control | [3] 100 % of control | [8] 106 % of control

Nc1cc2c(cc1Br)-c1cc(Br)c(N)cc1C2=O
inactive: [13] 98 % of control | [14] 98 % of control | dose: 400.0 mg/kg/injection, schedule: Q01DX001 (ip), vehicle: carboxymethylcellulose (CMC) 102 % of control

O=C(O)c1ccc(Oc2ccc([N+](=O)[O-])cc2)cc1
inactive: dose: 100.0 mg/kg/injection, schedule: Q01DX001 (ip), vehicle: Klucel (hydroxypropylcellulose) (HPC) 94 % of control | [3] 102 % of control | dose: 200.0 mg/kg/injection, schedule: Q01DX001 (ip), vehicle: Klucel (hydroxypropylcellulose) (HPC) 102 % of control | [4] 92 % of control | dose: 400.0 mg/kg/injection, schedule: Q01DX001 (ip), vehicle: Klucel (hydroxypropylcellulose) (HPC) 108 % of control | [5] 96 % of control
